The text below walks through data of PMC6422167 (ChemMedChem, 2018).

Assay [1] deals with T1, σ1 receptor (Cavia porcellus, UniProt Q60492). Description: σ1 receptor binding affinity, competition against. Further details: species or system guinea pig. The following applies: for Selectivity ratio VAChT/ σ1: ratio of Ki values, Table 2; for Ki: read-out: Ki σ1, homogenate of guinea pig brain, tested as oxalate, mean ± SD.
For assay [2], the target named is T2, σ2 receptor (Rattus norvegicus, UniProt Q5U3Y7).
T2 sequence (Q5U3Y7 1-176): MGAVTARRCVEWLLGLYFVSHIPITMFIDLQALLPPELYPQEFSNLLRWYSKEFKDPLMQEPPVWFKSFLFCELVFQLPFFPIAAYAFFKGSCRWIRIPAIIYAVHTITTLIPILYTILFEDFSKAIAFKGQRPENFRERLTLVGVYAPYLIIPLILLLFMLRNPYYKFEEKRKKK
Description: σ2 receptor binding affinity, competition against [3H]DTG. The following applies: for Selectivity ratio VAChT/ σ2: ratio of Ki values, Table 2; for Ki: read-out: Ki σ2, homogenate of rat liver, tested as oxalate, mean ± SD.

Assay [3] addresses T1, σ1 receptor. The note with it: read-out: Ki σ1, cited from earlier work.
The target in assay [4] is T3, human VAChT (Homo sapiens, UniProt Q16572).
T3 sequence (Q16572 1-532): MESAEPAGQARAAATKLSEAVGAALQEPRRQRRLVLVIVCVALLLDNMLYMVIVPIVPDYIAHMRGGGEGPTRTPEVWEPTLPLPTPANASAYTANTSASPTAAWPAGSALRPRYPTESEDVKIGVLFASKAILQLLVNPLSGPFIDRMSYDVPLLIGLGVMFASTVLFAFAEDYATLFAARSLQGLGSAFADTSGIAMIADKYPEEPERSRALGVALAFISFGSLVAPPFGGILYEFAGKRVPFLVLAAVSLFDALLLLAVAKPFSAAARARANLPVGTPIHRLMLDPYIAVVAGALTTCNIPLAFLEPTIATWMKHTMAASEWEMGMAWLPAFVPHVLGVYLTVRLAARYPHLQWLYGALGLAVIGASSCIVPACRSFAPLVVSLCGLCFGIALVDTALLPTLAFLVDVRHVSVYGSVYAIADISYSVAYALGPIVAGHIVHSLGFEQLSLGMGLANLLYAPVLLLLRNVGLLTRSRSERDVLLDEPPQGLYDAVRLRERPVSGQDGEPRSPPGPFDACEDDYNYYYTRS
The note with it: read-out: Ki VAChT; reference ligand; cited from earlier work.

Assay [5] concerns the target T2, σ2 receptor. The note with it: read-out: Ki σ2; reference σ1 ligand; cited from earlier work.

Like-named read-outs stand apart in the source and are kept apart here.

T1 sequence (Q60492 whole entry): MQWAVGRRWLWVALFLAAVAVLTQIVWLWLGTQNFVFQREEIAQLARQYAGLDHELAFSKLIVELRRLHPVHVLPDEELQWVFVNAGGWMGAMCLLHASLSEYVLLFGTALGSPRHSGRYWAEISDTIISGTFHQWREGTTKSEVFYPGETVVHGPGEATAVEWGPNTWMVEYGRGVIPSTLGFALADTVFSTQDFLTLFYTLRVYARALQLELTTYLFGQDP

As to `CSc1ccc(C(=O)C2CCN(C3Cc4ccccc4CC3O)CC2)cc1` (racemic) [(±)-8, (±)-(1-(3-Hydroxy-1,2,3,4-tetrahydronaphthalen-2-yl)piperidin-4-yl)(4-(methylthio)phenyl)methanone], in assay [1], the “Selectivity ratio VAChT/ σ1” value is 7.2 and the Ki was found to be 17.2 ± 4 nM. Also, in assay [2], the “Selectivity ratio VAChT/ σ2” value is more than 420 and the Ki is more than 1000 nM.
Regarding `O=C(c1ccc(SCCCF)cc1)C1CCN(C2Cc3ccccc3CC2O)CC1` (racemic) [(±)-14b, (±)-(4-((3-Fluoropropyl)thio)phenyl)(1-(3-hydroxy-1,2,3,4-tetrahydronaph-thalen-2-yl)piperidin-4-yl)methanone], in assay [1], the “Selectivity ratio VAChT/ σ1” value turned out to be 17.7 and the inhibitory constant (Ki) was 40.8 ± 4.1 nM. In assay [2], the “Selectivity ratio VAChT/ σ2” value was more than 430 and the Ki was more than 1000 nM.
For the compound `O[C@@H]1Cc2cccc(OCCF)c2C[C@H]1N1CCC(c2ccccc2)CC1` [(-)-FEOBV], the inhibitory constant (Ki) in assay [3] (reference ligand) was 209 ± 94 nM; in assay [4], 19.6 ± 1.1 nM. The “Selectivity ratio VAChT/ σ1” value in assay [1] is 10.7.
As to `O=C(Cc1ccccc1F)NC1CCC(Cc2ccccc2)CC1` (centres unmarked) [YUN-122, N-(4-benzylcyclohexyl)-2-(2-fluorophenyl)acetamide], the inhibition constant Ki in assay [3] (reference σ1 ligand) is 3.6 ± 1.1 nM; in assay [5], 667 ± 98 nM.
For `CS(=O)(=O)c1ccc(C(=O)C2CCN(C3Cc4ccccc4CC3O)CC2)cc1` (racemic) [(±)-7, (±)-(1-(3-Hydroxy-1,2,3,4-tetrahydronaphthalen-2-yl)piperidin-4-yl)(4-(methyl-sulfonyl)phenyl)methanone], in assay [1], the “Selectivity ratio VAChT/ σ1” value came out at 3.1 and the Ki came out at 16.5 ± 2.1 nM. Further, in assay [2], the “Selectivity ratio VAChT/ σ2” value is more than 185 and the Ki was more than 1000 nM.
`O=C(c1ccc(SCCF)cc1)C1CCN(C2Cc3ccccc3CC2O)CC1` (racemic) [(±)-14a, (±)-(4-((2-Fluoroethyl)thio)phenyl)(1-(3-hydroxy-1,2,3,4-tetrahydronaph-thalen-2-yl)piperidin-4-yl)methanone]: the “Selectivity ratio VAChT/ σ1” value in assay [1] stood at 7.0. Also, the “Selectivity ratio VAChT/ σ2” value in assay [2] is reported as more than 420.
As to (-)-vesamicol [reference compound], the Ki in assay [2] stood at 34.5 ± 2 nM.
